Species: Rattus norvegicus
Experiment: DrugMatrix - Regimen: Daily Repeat
Format: toxicity, organism-based, Sprague-Dawley
Design: regimen Daily Repeat, gender Male, age 6-8 weeks
Conditions: in vivo, po, route oral GAVAGE, vehicle .5 % CMC; for ABSOLUTE BASOPHIL / ABSOLUTE EOSINOPHIL / ABSOLUTE LYMPHOCYTE / ABSOLUTE MONOCYTE / ABSOLUTE SEGMENTED NEUTROPHIL / BASOPHIL / EOSINOPHIL / ERYTHROCYTE COUNT / HEMATOCRIT / HEMOGLOBIN / LEUKOCYTE COUNT / LYMPHOCYTE / MEAN CORPUSCULAR HEMOGLOBIN / MEAN CORPUSCULAR HEMOGLOBIN CONCENTRATION / MEAN CORPUSCULAR VOLUME / MONOCYTE / NEUTROPHIL / NUCLEATED RED BLOOD CELLS / PLATELET COUNT: tissue Blood; for ALANINE AMINOTRANSFERASE / ALBUMIN / ALKALINE PHOSPHATASE / ASPARTATE AMINOTRANSFERASE / BLOOD UREA NITROGEN / CARBON DIOXIDE / CHLORIDE / CHOLESTEROL / CREATINE PHOSPHOKINASE / CREATININE / GLUCOSE / LACTATE DEHYDROGENASE / LIPASE / PHOSPHORUS / POTASSIUM / SODIUM / TOTAL BILIRUBIN / TOTAL PROTEIN / URIC ACID: tissue Plasma
[1] = 50 mg/kg, 120 h, dose level Low, time 5 day
[2] = 2500 mg/kg, 72 h, dose level High, time 3 day
[3] = 2500 mg/kg, 120 h, dose level High, time 5 day

## CC(=O)O[C@]1(C(C)=O)CC[C@H]2[C@@H]3C=C(Cl)C4=CC(=O)[C@@H]5C[C@@H]5[C@]4(C)[C@H]3CC[C@@]21C [CYPROTERONE ACETATE]
[1]
  ABSOLUTE BASOPHIL: 0 CELLS/uL
  ABSOLUTE EOSINOPHIL: 24.33 CELLS/uL
  ABSOLUTE LYMPHOCYTE: 7928 CELLS/uL
  ABSOLUTE MONOCYTE: 144 CELLS/uL
  ABSOLUTE SEGMENTED NEUTROPHIL: 637 CELLS/uL
  BASOPHIL: 0%
  EOSINOPHIL: 0.33%
  ERYTHROCYTE COUNT: 5.93 x10E6/uL
  HEMATOCRIT: 37.07%
  HEMOGLOBIN: 14.9 G/DL
  LEUKOCYTE COUNT: 8.73 x10E3/uL
  LYMPHOCYTE: 90.33%
  MEAN CORPUSCULAR HEMOGLOBIN: 25.13 pg
  MEAN CORPUSCULAR HEMOGLOBIN CONCENTRATION: 40.23 G/DL
  MEAN CORPUSCULAR VOLUME: 62.47 fL
  MONOCYTE: 1.67%
  NEUTROPHIL: 7.67%
  NUCLEATED RED BLOOD CELLS: 0 /100WBC
  PLATELET COUNT: 1115.67 x10E3/uL
  ALANINE AMINOTRANSFERASE: 68.33 u/L
  ALBUMIN: 4.4 G/DL
  ALKALINE PHOSPHATASE: 339 u/L
  ASPARTATE AMINOTRANSFERASE: 88 u/L
  BLOOD UREA NITROGEN: 15.67 mg/dL
  CARBON DIOXIDE: 30.33 mmol/L
  CHLORIDE: 101 MEQ/L
  CHOLESTEROL: 79 mg/dL
  CREATINE PHOSPHOKINASE: 291 u/L
  CREATININE: 0.18 mg/dL
  GLUCOSE: 165 mg/dL
  LACTATE DEHYDROGENASE: 169 u/L
  LIPASE: 11 u/L
  PHOSPHORUS: 12.3 mg/dL
  POTASSIUM: 5.54 MEQ/L
  SODIUM: 144.17 MEQ/L
  TOTAL BILIRUBIN: 0.13 mg/dL
  TOTAL PROTEIN: 6.5 G/DL
  URIC ACID: 1.33 mg/dL
[2]
  ABSOLUTE BASOPHIL: 0 CELLS/uL
  ABSOLUTE EOSINOPHIL: 156.67 CELLS/uL
  ABSOLUTE LYMPHOCYTE: 10772 CELLS/uL
  ABSOLUTE MONOCYTE: 88.67 CELLS/uL
  ABSOLUTE SEGMENTED NEUTROPHIL: 1249.33 CELLS/uL
  BASOPHIL: 0%
  EOSINOPHIL: 1.33%
  ERYTHROCYTE COUNT: 5.59 x10E6/uL
  HEMATOCRIT: 36.7%
  HEMOGLOBIN: 14.03 G/DL
  LEUKOCYTE COUNT: 12.27 x10E3/uL
  LYMPHOCYTE: 88%
  MEAN CORPUSCULAR HEMOGLOBIN: 25.07 pg
  MEAN CORPUSCULAR HEMOGLOBIN CONCENTRATION: 38.23 G/DL
  MEAN CORPUSCULAR VOLUME: 65.63 fL
  MONOCYTE: 0.67%
  NEUTROPHIL: 10%
  NUCLEATED RED BLOOD CELLS: 0.33 /100WBC
  PLATELET COUNT: 1080.33 x10E3/uL
  ALANINE AMINOTRANSFERASE: 69.67 u/L
  ALBUMIN: 4.07 G/DL
  ALKALINE PHOSPHATASE: 424.67 u/L
  ASPARTATE AMINOTRANSFERASE: 99.67 u/L
  BLOOD UREA NITROGEN: 14.33 mg/dL
  CARBON DIOXIDE: 30 mmol/L
  CHLORIDE: 100.67 MEQ/L
  CHOLESTEROL: 113.33 mg/dL
  CREATINE PHOSPHOKINASE: 639.67 u/L
  CREATININE: 0.2 mg/dL
  GLUCOSE: 151.33 mg/dL
  LACTATE DEHYDROGENASE: 603.33 u/L
  LIPASE: 12.67 u/L
  PHOSPHORUS: 11.2 mg/dL
  POTASSIUM: 6.3 MEQ/L
  SODIUM: 141.73 MEQ/L
  TOTAL BILIRUBIN: 0.13 mg/dL
  TOTAL PROTEIN: 6 G/DL
  URIC ACID: 0.83 mg/dL
[3]
  ABSOLUTE BASOPHIL: 0 CELLS/uL
  ABSOLUTE EOSINOPHIL: 62.33 CELLS/uL
  ABSOLUTE LYMPHOCYTE: 8852.33 CELLS/uL
  ABSOLUTE MONOCYTE: 146.33 CELLS/uL
  ABSOLUTE SEGMENTED NEUTROPHIL: 2339 CELLS/uL
  BASOPHIL: 0%
  EOSINOPHIL: 0.67%
  ERYTHROCYTE COUNT: 5.55 x10E6/uL
  HEMATOCRIT: 34.3%
  HEMOGLOBIN: 13.77 G/DL
  LEUKOCYTE COUNT: 11.4 x10E3/uL
  LYMPHOCYTE: 80%
  MEAN CORPUSCULAR HEMOGLOBIN: 24.8 pg
  MEAN CORPUSCULAR HEMOGLOBIN CONCENTRATION: 40.13 G/DL
  MEAN CORPUSCULAR VOLUME: 61.87 fL
  MONOCYTE: 1.33%
  NEUTROPHIL: 18%
  NUCLEATED RED BLOOD CELLS: 0.33 /100WBC
  PLATELET COUNT: 1381.33 x10E3/uL
  ALANINE AMINOTRANSFERASE: 94 u/L
  ALBUMIN: 4.3 G/DL
  ALKALINE PHOSPHATASE: 317.67 u/L
  ASPARTATE AMINOTRANSFERASE: 101.67 u/L
  BLOOD UREA NITROGEN: 21.33 mg/dL
  CARBON DIOXIDE: 23.67 mmol/L
  CHLORIDE: 98.67 MEQ/L
  CHOLESTEROL: 98.67 mg/dL
  CREATINE PHOSPHOKINASE: 467 u/L
  CREATININE: 0.27 mg/dL
  GLUCOSE: 223 mg/dL
  LACTATE DEHYDROGENASE: 496 u/L
  LIPASE: 10.67 u/L
  PHOSPHORUS: 12.8 mg/dL
  POTASSIUM: 6.34 MEQ/L
  SODIUM: 142.07 MEQ/L
  TOTAL BILIRUBIN: 0.17 mg/dL
  TOTAL PROTEIN: 7 G/DL
  URIC ACID: 2.1 mg/dL

Source: ChEMBL document CHEMBL3885881, “DrugMatrix”
